From patent US9551722B2, “Amyloid binding agents” (The Regents of the University of California, priority 2009, dated 2017)

Key:
[1] = molecular target: T1, pre-aggregated Aβ(1-42) peptide (Homo sapiens, UniProt P05067); assay: Apparent binding constant (Kd) by double reciprocal fluorescence plot; conditions: compound 10, 5, 2.5, 1.25 μM; 5.0 μM pre-aggregated Aβ(1-42); PBS pH 7.4
T1 construct: preaggregated Aβ(1-42) peptides
Experimental: We also measured the apparent binding constants (Kd) of the compounds (in concentrations of 10, 5, 2.5 and 1.25 μM) to 5.0 μM pre-aggregated Aβ(1-42) peptide. The Kd can be measured from the double reciprocal of the fluorescent maximum and the concentration of the compound. See H. LeVine III, Protein Sci. 1993, 2:404-410. […] [22,] See LeVine, Id.; Lockhart, L. Ye, D. B. Judd, A. T. Merritt, P. N. Lowe, J. L. Morgenstern, G. Z. Hong, A. D. Gee, J. Brown, J. Biol. Chem. 2005, 280:7677-7684; M. Biancalana, K. Makabe, A. Koide, S. Koide, J. Mol. Biol. 2008, 383:205-213; M. Biancalana, K. Makabe, A. Koide, S. Koide, J. Mol. Biol. 2009, 385:1052-1063. The Kd corresponds to the −1/(x-intercept) of the linear regression.
Pre-aggregated Aβ(1-42) (5 μM final concentration) was mixed with various concentrations of compounds described herein (10, 5, 2.5, 1.25 μM) in PBS buffer (pH 7.4) and their fluorescence was measured. The negative inverse of the x-intercept of the linear regression, that was drawn between the double reciprocal of the fluorescence intensity maximum and concentration of the compound, represents the compound binding constant (Kd) to Aβ(1-42).
In order to quantify the dissociation constants (Kd's) for the binding of fluorescent compounds with aggregated β-amyloid peptides, we used the method described by LeVine (see H. LeVine III, Protein Sci. 1993, 2, 404-410). This method is similar to the method described by Benesi-Hildebran (see C. Yang, L. Liu, T. W. Mu, Q. X. Guo, Anal. Sci. 2000, 16, 537-539). Here, the fluorescence of the compound was measured with and without the addition of the aggregated peptides in solution. The relative fluorescence enhancement of the compound upon binding to aggregated β-amyloid peptides was determined by taking the difference between F (fluorescence after the addition of aggregated peptides) and F (fluorescence before the addition of aggregated peptides).
In order to estimate the binding constant (Kd) for the compound-Aβ complexes from the fluorescence studies, we made the following assumptions: • 1. All compounds are completely in solution and free of any significant competing binding process such as self-aggregation. • 2. The concentration of unbound compounds can be approximated as close to the total concentration of the compounds. • 3. The binding sites in the aggregated Aβ peptides are not completely occupied at the concentration of Aβ-binding compounds used for the fluorescence studies (i.e., the experiments are carried out under non-saturated binding conditions).
FIG. 2 and FIG. 6 provide double reciprocal plots of the measured fluorescence versus total concentration of compound [GO]. Assuming that [G] can be approximated as close to [GO] (assumption 2), we can obtain estimates for the Kd's of the compound-Aβ complexes from the x-intercept of the linear fits of the data for each compound.

[2] = molecular target: T2, interaction of the aggregated Aβ peptide with a monoclonal anti-Aβ IgG (Homo sapiens, UniProt P05067); assay: Semi-quantitative ELISA: inhibition of IgG-Aβ fibril interactions; type: binding; conditions: anti-Aβ IgG clone 6E10
T2 construct: Aggregated Aβ peptides were generated from synthetic Aβ(1-42) peptides
Experimental: The association of the synthesized compounds with aggregated Aβ peptides was tested using a semi-quantitative ELISA based assay developed by Yang and co-workers. See P. Inbar, J. Yang, Bioorg. Med. Chem. Lett. 2006, 16:1076-1079; P. Inbar, C. Q. Li, S. A. Takayama, M. R. Bautista, J. Yang, ChemBioChem 2006, 7:1563-1566; P. Inbar, M. R. Bautista, S. A. Takayama, J. Yang, Anal. Chem. 2008, 80:3502-3506. The assay is based on screening for molecules that inhibit the interaction of the aggregated Aβ peptide with a monoclonal anti-Aβ IgG raised against residues 1-17 of Aβ. Table 4 provides the concentrations of the compounds corresponding to 50% inhibition (IC50) of the IgG-Aβ interactions as well as the maximal percentage of the IgG's inhibited from binding to the fibrils. […] The maximum inhibition, a measure of the extent of surface coating of the aggregated peptide by the compounds, was determined to be between 40-98% (Table 4). See P. Inbar, J. Yang, Bioorg. Med. Chem. Lett. 2006, 16:1076-1079; P. Inbar, C. Q. Li, S. A. Takayama, M. R. Bautista, J. Yang, ChemBioChem 2006, 7:1563-1566; P. Inbar, M. R. Bautista, S. A. Takayama, J. Yang, Anal. Chem. 2008, 80:3502-3506. […] Specifically, while the maximum inhibition is between 81-98% for the phenyl compounds, it decreases to 58% for the longer naphthalene compound 11 and to 40% for the more conjugated stilbene 19.
Aggregated Aβ peptides were generated from synthetic Aβ(1-42) peptides by dissolving 30 μg of peptide in 90 μL of nanopure water (pH 5-6) and incubating at 37° C. for ≧72 h without agitation. Each well of a 96-well plate (well volume 0.4 mL; clear, flat bottom polypropylene) was coated for 3 h at 25° C. with 50 μL of 1.3 μM solution of Aβ peptides in phosphate-buffered saline (PBS, 10 mM NaH2PO4/Na2HPO4, 138 mM NaCl, 2.7 mM KCl, pH 7.4). After removal of the excess sample, 50 μL solutions of compounds in PBS buffer (various concentrations were obtained by diluting a stock solution with PBS buffer) were incubated in the wells for 12 h. […] The excess solutions were then removed and all wells were blocked for 30 min by adding 300 μL of a 1% (w/v) solution of bovine serum albumin in PBS buffer (BSA/PBS). On occasion, an additional blocking step was performed prior to incubation with solutions of small molecules. The blocking solution was discarded and the wells were washed once with 300 μL of PBS buffer. Wells were incubated for 1 h with 50 μL of a 1.1 nM solution (in 1% BSA/PBS, dilution 1:6000) of anti-Aβ IgG (clone 6E10, monoclonal, mouse), followed by removal of the solution. The wells were washed twice with 300 μL of PBS buffer and incubated for 60 min with 50 μL of the secondary IgG (anti-mouse IgG H+L, polyclonal, rabbit) conjugated with alkaline phosphatase (6.8 nM in 1% BSA/PBS, dilution 1:1000). The solution was discarded, and the wells were washed twice with 300 μL PBS buffer. Bound secondary IgGs were detected by the addition of 50 μL of a p-nitrophenyl phosphate solution (2.7 mM, in 100 mM diethanol amine/0.5 mM magnesium chloride, pH 9.8). Absorbance intensities were determined at 405 nm using a UV-vis spectroscopic plate reader (Sprectramax 190, Molecular Devices, Sunnyvale, Calif.). Each run was performed five times and averaged. Error bars represent standard deviations. Graphs were plotted and fitted with the sigmoid curve fitting.

[3] = Solubility in aqueous media (observation); type: physicochemical

T2 sequence (P05067 672-713 limits assumed): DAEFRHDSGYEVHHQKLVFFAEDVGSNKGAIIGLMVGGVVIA
T1 sequence (P05067 672-713 limits assumed): as above

- Kd [1]: 1.4 µM
- IC50 ([2]; 50% inhibition of IgG-Aβ interactions): 33.6 µM
- Maximum % inhibition (ELISA) ([2]; maximal percentage of IgG inhibited from binding to the fibrils): 40%
- Solubility in aqueous media [3]: poor solubility in aqueous media
Compound: COCCOCCOCCOC(=O)/C(C#N)=C/c1ccc(/C=C/c2ccc(N(C)C)cc2)cc1 [Cmpd 19, (E)-2-(2-(2-methoxyethoxyl)ethoxy)ethyl-cyano-3-(4-(4(dimethylamino)styryl)phenyl)acrylate]
